Assay results as given in patent publication US9951032B2, “Antibacterial compounds” (Janssen Sciences Ireland UC, priority 2012, dated 2018).
Values after ≈ are worked out from the molar mass of the structure shown. Like-named read-outs stand apart in the source and are kept apart here.

How the values were obtained:
[1] = system: Mycobacterium tuberculosis (strain H37RV); experiment: MIC90 determination for testing compounds against M. tuberculosis; format: cell-based
[2] = system: Mycobacterium tuberculosis (strain H37RV); experiment: Time kill assay (kill kinetics), broth dilution method; format: cell-based

Compound: O=C(Nc1nc2cc(Cl)ccc2o1)NC12CC3CC(CC(C3)C1)C2
- melting point: > 250 °C

Compound: NNC(=O)c1ccncc1 [Isoniazid, reference compound]
- MIC90 ([1]; LV12076, 10% human serum): 0.03 µg/mL (≈ 0.219 µM)
- MIC90 ([1]; LV12086, 20% human serum): 0.03 µg/mL (≈ 0.219 µM)
- MIC90 ([1]; LV12086, no human serum): 0.03 µg/mL (≈ 0.219 µM)
- MIC90 ([1]; Mycobacterium tuberculosis, H37RV, LV12076, no human serum, read-out: MIC90): 0.03 µg/mL (≈ 0.219 µM)
- log CFU/ml ([2]; 1 μg/ml, day 0): 6.35 log CFU/ml
- log CFU/ml ([2]; 1 μg/ml, day 1): 3.57 log CFU/ml
- log CFU/ml ([2]; 1 μg/ml, day 4): 2.00 log CFU/ml
- log CFU/ml ([2]; 1 μg/ml, day 7): 2.00 log CFU/ml
- log CFU/ml ([2]; 1 μg/ml, day 14): 2.00 log CFU/ml
- log CFU/ml ([2]; 1 μg/ml, day 21): 2.00 log CFU/ml

Compound: O=C(Nc1nc2c(F)cc(F)cc2s1)NC12CC3CC(CC(C3)C1)C2 [Compound 1]
- MIC90 ([1]; Mycobacterium tuberculosis, H37RV, LV12076, 10% human serum): 1 µg/mL (≈ 2.75 µM)
- MIC90 ([1]; Mycobacterium tuberculosis, H37RV, LV12086, 20% human serum): 1 µg/mL (≈ 2.75 µM)
- MIC90 ([1]; Mycobacterium tuberculosis, H37RV, LV12086, no human serum): 0.25 µg/mL (≈ 0.688 µM)
- MIC90 ([1]; Mycobacterium tuberculosis, H37RV, LV12076, no human serum): 0.5 µg/mL (≈ 1.38 µM)
- melting point: > 260 °C
- log CFU/ml ([2]; 0.5 μg/ml, day 0): 6.35 log CFU/ml
- log CFU/ml ([2]; 0.5 μg/ml, day 1): 5.57 log CFU/ml
- log CFU/ml ([2]; 0.5 μg/ml, day 4): 2.00 log CFU/ml
- log CFU/ml ([2]; 0.5 μg/ml, day 7): 2.00 log CFU/ml
- log CFU/ml ([2]; 0.5 μg/ml, day 14): 2.00 log CFU/ml
- log CFU/ml ([2]; 0.5 μg/ml, day 21): 2.00 log CFU/ml
- log CFU/ml ([2]; 5 μg/ml, day 0): 6.35 log CFU/ml
- log CFU/ml ([2]; 5 μg/ml, day 1): 6.15 log CFU/ml
- log CFU/ml ([2]; 5 μg/ml, day 4): 3.08 log CFU/ml
- log CFU/ml ([2]; 5 μg/ml, day 7): 2.00 log CFU/ml
- log CFU/ml ([2]; 5 μg/ml, day 14): 2.00 log CFU/ml
- log CFU/ml ([2]; 5 μg/ml, day 21): 2.00 log CFU/ml
